Legend:
[1] = Single administration: body weight change in DIO mice; assay type: in vivo, Mouse, C57BL/6J-DIO; conditions: for Body Weight (Group, % of initial): daily s.c. injection, mean
Method: (§1) The pharmacological effect of the fusion polypeptides produced and purified in Example 1 above was tested in mice (C57BL/6J, 6-week-old, male, 100 mice; Raonbio).
(§2) In the present example, DI0 mouse model (Mouse, C57BL/6J-DIO, male, 100 mice, 14-week-old (obesity feed feeding for 8 weeks)) in which obesity was induced by feeding a high-fat diet into the C57BL/6J mice for 8 weeks was used.
(§3) The administration of the test substances HT-ID1-GDF15, HT-ID2-GDF15, and HT-ID3-GDF15 and the control substance Semaglutide (Bachem) was conducted from the next day after group separation, and the administration time was performed at 9 AM every day. Subcutaneous administration was conducted for all the control substance and test substances. For the administration route of the control substance and test substances, subcutaneous administration was selected depending on the clinically scheduled administration route.
(§4) For all the control substance and test substances, the amount of the administration solution was set to 5 mL/kg and the administration liquid by individual was calculated on the basis of the recently measured body weight and it was administered by subcutaneous injection once on the start day of the test using a disposable syringe (1 mL). The test substances were administered only once. For comparison, the control group in which the control substance Semaglutide was administered was prepared, and the comparison group in which Semaglutide was administered was administered once a day, and all the administration was progressed from 9 AM.
As for the observation, measurement and test schedule for the test groups, the administration start date was set to Day 0, and 7 days from the administration start date were set to one week of administration.
(§5) The body weight of each mouse was measured on the day of the start of administration of the test substances (before administration), and thereafter, the body weight was measured every day (measured up to 9 days), and the amount of the administration solution of the test substances was determined on the basis of the most recently measured body weight.
(§6) All the experimental results obtained in the present example were expressed as mean±standard error and tested using Prism5 (version 5.01). One-way analysis of variance (ANOVA) was performed on all data, and when significance was observed, Dunnett's test was performed to find out the test groups with a significant difference from the control group (significance level: two-sided 5% and 1%, 0.1%).

[2] = Repeated administration: feed intake in DIO mice; assay type: in vivo, Mouse, C57BL/6J-DIO; parameters: unit not given here
Method: (§7) In addition, after administering the test substances into mice, the daily feed intake was measured, and the feeding amount was measured using an electronic scale for each breeding box, and the remaining amount was measured to calculate the daily feed intake. In case of an individual that gnawed heavily on heed, it was excluded from the measurement.
as §6
(§8) Except for the administration dose, animal number and administration cycle, most of the test processes were the same as in Example 2.1.1 above.
(§9) The test substances were administered twice a week (Days 0, 4, 7, 11, 14, 18, 21, 25) for a total of 8 times. For comparison, the control group in which the control substance Semaglutide was administered every day was prepared, and the comparison group in which Semaglutide was administered every day was administered once a day daily, and all the administration was progressed from 9 AM.

[3] = Single administration: feed intake in DIO mice; assay type: in vivo, Mouse, C57BL/6J-DIO; parameters: unit not given here
Method: as §1, §2, §3, §4, §7, §6

[4] = Repeated administration: body weight change in DIO mice; assay type: in vivo, Mouse, C57BL/6J-DIO
Method: as §5, with “([…]),” for “(measured up to 9 days),”
as §6, §8, §9

[5] = Pharmacokinetic test, subcutaneous administration to SD rats (serum ELISA, Human GDF15 Immunoassay); assay type: in vivo; conditions: 2 mg/kg subcutaneous
Method: For evaluation of pharmacokinetic characteristics when each fusion polypeptide was subcutaneously administered to rats, the fusion polypeptides HT-ID1-GDF15, HT-ID2-GDF15 and HT-ID3-GDF15 were subcutaneously administered into SD rats (Koatech, male, 7-week-old, about 250 g; n=3 each; test group) in an amount of 2 mg/kg, respectively, and about 200 μl of blood was collected through the caudal vein at a predetermined time. The blood collection time was performed before administration, and 1, 2, 4, 8, 24, 48, 72, 96, 168, 240 and 336 hours after administration. As the control group for comparison of pharmacokinetic characteristics, GDF15 (R&D Systems) was subcutaneously administered in an amount of 2 mg/kg by the same method to prepare a GDF15 administration group.
After administering into SD Rats as above, blood collected by time-point was centrifuged to obtain serum, and ELISA was performed using Human GDF15 Immunoassay (SGD150, R&D Systems), and the concentration in the serum was measured depending on the time of each polypeptide.

Substance: Semaglutide [reference compound]
- body weight loss effect ([1]; 3 nmol/kg daily s.c. administration): body weight loss effect was continuously shown from Day 1 after administration
- Body Weight (Group, % of initial) ([1]; Day 0, 3 nmol/kg): 100 % of initial
- Body Weight (Group, % of initial) ([1]; Day 1, 3 nmol/kg): 94 % of initial
- Body Weight (Group, % of initial) ([1]; Day 2, 3 nmol/kg): 91 % of initial
- Body Weight (Group, % of initial) ([1]; Day 3, 3 nmol/kg): 90 % of initial
- Body Weight (Group, % of initial) ([1]; Day 4, 3 nmol/kg): 87 % of initial
- Body Weight (Group, % of initial) ([1]; Day 5, 3 nmol/kg): 87 % of initial
- Body Weight (Group, % of initial) ([1]; Day 6, 3 nmol/kg): 85 % of initial
- Body Weight (Group, % of initial) ([1]; Day 7, 3 nmol/kg): 86 % of initial
- Body Weight (Group, % of initial) ([1]; Day 8, 3 nmol/kg): 83 % of initial
- Body Weight (Group, % of initial) ([1]; Day 9, 3 nmol/kg): 85 % of initial
- Feed intake, Mean ([2]; Day 1, 3 nmol/kg once a day): 2.9
- Feed intake, Mean ([2]; Day 2, 3 nmol/kg once a day): 0.7
- Feed intake, Mean ([2]; Day 3, 3 nmol/kg once a day): 1.3
- Feed intake, Mean ([2]; Day 4, 3 nmol/kg once a day): 1.4
- Feed intake, Mean ([2]; Day 5, 3 nmol/kg once a day): 1.7
- Feed intake, Mean ([2]; Day 6, 3 nmol/kg once a day): 1.5
- Feed intake, Mean ([2]; Day 7, 3 nmol/kg once a day): 1.6
- Feed intake, Mean ([2]; Day 8, 3 nmol/kg once a day): 1.9
- Feed intake, Mean ([2]; Day 9, 3 nmol/kg once a day): 2.0
- Feed intake, Mean ([2]; Day 10, 3 nmol/kg once a day): 2.3
- Feed intake, Mean ([2]; Day 11, 3 nmol/kg once a day): 2.2
- Feed intake, Mean ([2]; Day 12, 3 nmol/kg once a day): 3.2
- Feed intake, Mean ([2]; Day 13, 3 nmol/kg once a day): 2.2
- Feed intake, Mean ([2]; Day 14, 3 nmol/kg once a day): 2.5
- Feed intake, Mean ([2]; Day 15, 3 nmol/kg once a day): 2.5
- Feed intake, Mean ([2]; Day 16, 3 nmol/kg once a day): 2.2
- Feed intake, Mean ([2]; Day 17, 3 nmol/kg once a day): 2.4
- Feed intake, Mean ([2]; Day 18, 3 nmol/kg once a day): 2.2
- Feed intake, Mean ([2]; Day 19, 3 nmol/kg once a day): 2.6
- Feed intake, Mean ([2]; Day 20, 3 nmol/kg once a day): 2.6
- Feed intake, Mean ([2]; Day 21, 3 nmol/kg once a day): 2.5
- Feed intake, Mean ([2]; Day 22, 3 nmol/kg once a day): 2.9
- Feed intake, Mean ([2]; Day 23, 3 nmol/kg once a day): 2.0
- Feed intake, Mean ([2]; Day 24, 3 nmol/kg once a day): 2.4
- Feed intake, Mean ([2]; Day 25, 3 nmol/kg once a day): 2.9
- Feed intake, Mean ([2]; Day 26, 3 nmol/kg once a day): 2.4
- Feed intake, Mean ([2]; Day 27, 3 nmol/kg once a day): 2.4
- Feed intake, Mean ([2]; Day 28, 3 nmol/kg once a day): 2.7
- Feed intake, Mean ([3]; Day 0, 3 nmol/kg Daily Inj.): 3.7
- Feed intake, Mean ([3]; Day 1, 3 nmol/kg Daily Inj.): 2.1
- Feed intake, Mean ([3]; Day 2, 3 nmol/kg Daily Inj.): 3.3
- Feed intake, Mean ([3]; Day 3, 3 nmol/kg Daily Inj.): 2.8
- Feed intake, Mean ([3]; Day 4, 3 nmol/kg Daily Inj.): 2.3
- Feed intake, Mean ([3]; Day 5, 3 nmol/kg Daily Inj.): 2.9
- Feed intake, Mean ([3]; Day 6, 3 nmol/kg Daily Inj.): 2.7
- Feed intake, Mean ([3]; Day 7, 3 nmol/kg Daily Inj.): 3.2
- Feed intake, Mean ([3]; Day 8, 3 nmol/kg Daily Inj.): 2.4
- Feed intake, Mean ([3]; Day 9, 3 nmol/kg Daily Inj.): 3.7
- Body Weight, Mean ([4]; Day 0, 3 nmol/kg once a day): 100.0 % of initial
- Body Weight, Mean ([4]; Day 1, 3 nmol/kg once a day): 93.9 % of initial
- Body Weight, Mean ([4]; Day 2, 3 nmol/kg once a day): 92.6 % of initial
- Body Weight, Mean ([4]; Day 3, 3 nmol/kg once a day): 90.4 % of initial
- Body Weight, Mean ([4]; Day 4, 3 nmol/kg once a day): 88.4 % of initial
- Body Weight, Mean ([4]; Day 5, 3 nmol/kg once a day): 66.2 % of initial
- Body Weight, Mean ([4]; Day 6, 3 nmol/kg once a day): 64.1 % of initial
- Body Weight, Mean ([4]; Day 7, 3 nmol/kg once a day): 82.6 % of initial
- Body Weight, Mean ([4]; Day 8, 3 nmol/kg once a day): 61.9 % of initial
- Body Weight, Mean ([4]; Day 9, 3 nmol/kg once a day): 80.7 % of initial
- Body Weight, Mean ([4]; Day 10, 3 nmol/kg once a day): 80.3 % of initial
- Body Weight, Mean ([4]; Day 11, 3 nmol/kg once a day): 80.3 % of initial
- Body Weight, Mean ([4]; Day 12, 3 nmol/kg once a day): 79.1 % of initial
- Body Weight, Mean ([4]; Day 13, 3 nmol/kg once a day): 76.8 % of initial
- Body Weight, Mean ([4]; Day 14, 3 nmol/kg once a day): 76.7 % of initial
- Body Weight, Mean ([4]; Day 15, 3 nmol/kg once a day): 78.1 % of initial
- Body Weight, Mean ([4]; Day 16, 3 nmol/kg once a day): 78.3 % of initial
- Body Weight, Mean ([4]; Day 17, 3 nmol/kg once a day): 77.2 % of initial
- Body Weight, Mean ([4]; Day 18, 3 nmol/kg once a day): 76.7 % of initial
- Body Weight, Mean ([4]; Day 19, 3 nmol/kg once a day): 77.1 % of initial
- Body Weight, Mean ([4]; Day 20, 3 nmol/kg once a day): 76.1 % of initial
- Body Weight, Mean ([4]; Day 21, 3 nmol/kg once a day): 76.8 % of initial
- Body Weight, Mean ([4]; Day 22, 3 nmol/kg once a day): 75.9 % of initial
- Body Weight, Mean ([4]; Day 23, 3 nmol/kg once a day): 75.6 % of initial
- Body Weight, Mean ([4]; Day 24, 3 nmol/kg once a day): 76.0 % of initial
- Body Weight, Mean ([4]; Day 25, 3 nmol/kg once a day): 76.3 % of initial
- Body Weight, Mean ([4]; Day 26, 3 nmol/kg once a day): 76.5 % of initial
- Body Weight, Mean ([4]; Day 27, 3 nmol/kg once a day): 76.2 % of initial
- Body Weight, Mean ([4]; Day 28, 3 nmol/kg once a day): 75.7 % of initial

Substance: rhGDF15: GDF15 (R&D Systems), not fused, control group for comparison of pharmacokinetic characteristics
- half-life [5]: 19 h
- AUCextp (%) [(AUCinf − AUClast)/AUCinf]*100 ([5]; serum): 0.463%
- AUClast ([5]; serum): 4.86 µg·h/mL
- Cmax (maximum concentration in blood) ([5]; serum): 0.443 µg/mL
- Tmax (reaching time to maximum concentration in blood) ([5]; serum): 1 h
- t1/2 (loss half-life) ([5]; serum): 19.0 h
- AUCinf ([5]; serum, extrapolated to infinity): 4.88 µg·h/mL

— patent US20230133672A1, “FUSION POLYPEPTIDE COMPRISING GDF15 AND POLYPEPTIDE REGION CAPABLE OF O-GLYCOSYLATION” (LG CHEM, LTD., priority 2019, published 2023)
